Here are results for 25 compounds from US10287305B2, “Substituted piperidine compound and use thereof” (Takeda Pharmaceutical Company Limited, priority 2016, dated 2019).

The target in one experiment is human OX2 receptor (Homo sapiens (Human), UniProt O43614). Description: Measurement of orexin type 2 receptor agonist activity (Experimental Example 2-2, FDSS uCELL, calcium indicator). The following applies: CHO cells expressing human OX2 receptor; for Emax: DMSO = 0%, reference OX-A at 10 nM; for EC50: Fluo-4 AM. In kind it is cell-based. The procedure:
CHO cells forcibly expressing human OX2 receptor were seeded in each well of 384 well black transparent bottom plate (BD Falcon) at 7,500 cells/well, and cultured for one day in a 5% CO2 incubator at 37° C. […] The plate was stood for 30 min in a 5% CO2 incubator at 37° C., and further stood at room temperature for 30 min. A test compound prepared by diluting with assay buffer B (HESS, 20 mM HEPES, 0.1% BSA) was added at 10 μL/well, and the fluorescence value was measured by FDSSμCELL (Hamamatsu Photonics K.K.) every one sec for 1 min, and thereafter every two sec for 1 min sec.

For experiment [1], the target named is human orexin type 2 receptor (hOX2R) (Homo sapiens (Human), UniProt O43614). Description: Measurement of orexin type 2 receptor agonist activity (Experimental Example 2-1, FLIPR TETRA, intracellular Ca2+). It is filed as cell-based. The following applies: CHO dhfr- cells expressing hOX2R.
The mark [2] stands for this setting: FLIPR TETRA, Fluo-4AM, read-out: Emax (%).

Where two headings read alike, the source gives them in different places.

Sequence of human orexin type 2 receptor (hOX2R) (O43614 whole entry): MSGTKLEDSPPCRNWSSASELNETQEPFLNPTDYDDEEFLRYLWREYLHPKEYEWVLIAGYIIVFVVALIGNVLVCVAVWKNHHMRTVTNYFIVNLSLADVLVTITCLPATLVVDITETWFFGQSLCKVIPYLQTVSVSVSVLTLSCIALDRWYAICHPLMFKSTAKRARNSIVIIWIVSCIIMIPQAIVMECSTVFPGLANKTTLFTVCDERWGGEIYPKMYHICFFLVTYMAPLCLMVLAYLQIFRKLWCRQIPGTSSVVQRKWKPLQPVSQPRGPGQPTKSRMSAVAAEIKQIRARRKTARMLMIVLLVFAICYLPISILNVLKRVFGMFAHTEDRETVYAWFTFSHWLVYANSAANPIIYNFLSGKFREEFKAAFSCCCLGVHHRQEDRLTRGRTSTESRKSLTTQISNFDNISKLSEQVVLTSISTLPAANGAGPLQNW
Sequence of human OX2 receptor (O43614 whole entry): as above

As for `COC(=O)N1CCC[C@H](NS(C)(=O)=O)[C@@H]1CO[C@H]1CC[C@@H](c2cccc(O)c2)CC1` (relative stereo) [Example 343, methyl cis-2-(((cis-4-(3-hydroxyphenyl)cyclohexyl)oxy)-methyl)-3-((methylsulfonyl)amino)piperidine-1-carboxylate], on human OX2 receptor, the Emax amounted to 109% and the EC50 worked out at 0.15 µM.

Regarding `COC(=O)N1CCC[C@H](NS(C)(=O)=O)[C@@H]1CO[C@H]1CC[C@@H](c2ccc(OC)cc2)CC1` (relative stereo) [Example 344, methyl cis-2-(((cis-4-(4-methoxyphenyl)cyclohexyl)oxy)-methyl)-3-((methylsulfonyl)amino)piperidine-1-carboxylate], on human OX2 receptor, the EC50 was 0.29 µM. Also, the Emax at human OX2 receptor (CHO) amounted to 109%. Regarding `COC(=O)N1CCC[C@H](NS(C)(=O)=O)[C@@H]1CO[C@H]1CC[C@@H](c2ccc(O)cc2)CC1` (relative stereo) [Example 345, methyl cis-2-(((cis-4-(4-hydroxyphenyl)cyclohexyl)oxy)-methyl)-3-((methylsulfonyl)amino)piperidine-1-carboxylate], the EC50 on human OX2 receptor came to 0.021 µM. Further, the Emax at human OX2 receptor (CHO) came out at 105%. Consider `COC(=O)N1CCC[C@H](NS(C)(=O)=O)[C@@H]1CO[C@H]1CC[C@@H](c2ccccc2O)CC1` (relative stereo) [Example 347, methyl cis-2-(((cis-4-(2-hydroxyphenyl)cyclohexyl)oxy)-methyl)-3-((methylsulfonyl)amino)piperidine-1-carboxylate], for which, at human OX2 receptor, the EC50 stood at 0.26 µM. Moreover, the Emax at human OX2 receptor (CHO) was determined as 94%.

In turn, `COC(=O)N1CCC[C@H](NS(C)(=O)=O)[C@@H]1CO[C@H]1CC[C@@]2(CC1)OCc1ccccc12` [Example 274, methyl cis-3-((methylsulfonyl)amino)-2-(((1r,4′r)-3H-spiro[2-benzofuran-1,1′-cyclohexan]-4′-yloxy)methyl)piperidine-1-carboxylate] gave an EC50 in experiment [1] (FLIPR TETRA, Fluo-4AM) of 0.26 µM. For the same compound, in experiment [1] (setting [2]), the Emax was 118%.

As to `COC(=O)N1CCC[C@H](NS(C)(=O)=O)[C@@H]1CO[C@H]1CC[C@]2(CC1)OCc1ccccc12` [Example 275, methyl cis-3-((methylsulfonyl)amino)-2-(((1s,4′s)-3H-spiro[2-benzofuran-1,1′-cyclohexan]-4′-yloxy)methyl)piperidine-1-carboxylate], in experiment [1] (FLIPR TETRA, Fluo-4AM), a half-maximal effect (EC50) was put at 3.1 µM. Moreover, the Emax in experiment [1] (setting [2]) was found to be 87%.

As to `CS(=O)(=O)N[C@H]1CCCN(C(=O)OCC(F)(F)F)[C@H]1CO[C@H]1CC[C@@H](c2cccc(F)c2)CC1` [Example 276, 2,2,2-trifluoroethyl (2R,3S)-2-(((cis-4-(3-fluorophenyl)cyclohexyl)oxy)methyl)-3-((methylsulfonyl)amino)piperidine-1-carboxylate], the Emax in experiment [1] (setting [2]) came to 95%.

Compound `COC(=O)N1CCC[C@H](NS(C)(=O)=O)[C@@H]1CO[C@H]1CC[C@@H](c2ccccc2OC)CC1` [Example 277, methyl (2R,3S)-2-(((cis-4-(2-methoxyphenyl)cyclohexyl)oxy)methyl)-3-((methylsulfonyl)amino)piperidine-1-carboxylate] had an EC50 in experiment [1] (FLIPR TETRA, Fluo-4AM) of 0.0029 µM. Further, the Emax in experiment [1] (setting [2]) is 95%. Turning to `CCNC(=O)N1CCC[C@H](NS(C)(=O)=O)[C@@H]1CO[C@H]1CC[C@@H](c2ccccc2C(F)(F)F)CC1` [Example 282, (2R,3S)-N-ethyl-3-((methylsulfonyl)amino)-2-(((cis-4-(2-(trifluoromethyl)phenyl)cyclohexyl)oxy)methyl)piperidine-1-carboxamide], in experiment [1] (FLIPR TETRA, Fluo-4AM), the response was half-maximal at 0.00055 µM (EC50) and the “Emax (%)” value is given as 93%. `CS(=O)(=O)N[C@H]1CCCN(C(=O)CO)[C@H]1CO[C@H]1CC[C@@H](c2ccccc2C(F)(F)F)CC1` [Example 283, N-((2R,3S)-1-glycoloyl-2-(((cis-4-(2-(trifluoromethyl)phenyl)cyclohexyl)oxy)methyl)piperidin-3-yl)methanesulfonamide] gave an EC50 in experiment [1] (FLIPR TETRA, Fluo-4AM) of 0.0089 µM. In experiment [1] (setting [2]), the Emax came out at 95%. `COc1ccccc1[C@H]1CC[C@@H](OC[C@H]2[C@@H](NS(C)(=O)=O)CCCN2C(C)=O)CC1` [Example 291, N-((2R,3S)-1-acetyl-2-(((cis-4-(2-methoxyphenyl)cyclohexyl)oxy)methyl)piperidin-3-yl)methanesulfonamide] yielded an EC50 in experiment [1] (FLIPR TETRA, Fluo-4AM) of 0.026 µM. The Emax in experiment [1] (setting [2]) is 98%.

In turn, `CCOC(=O)N1CCC[C@H](NS(C)(=O)=O)[C@@H]1CO[C@H]1CC[C@@H](c2ccccc2)CC1` [Example 303, ethyl (2R,3S)-3-((methylsulfonyl)amino)-2-(((cis-4-phenylcyclohexyl)oxy)methyl)-piperidine-1-carboxylate] had an EC50 in experiment [1] (FLIPR TETRA, Fluo-4AM) of 0.015 µM. In experiment [1] (setting [2]), the Emax came out at 102%.

As for `COc1cccc([C@H]2CC[C@@H](OC[C@H]3[C@@H](NS(C)(=O)=O)CCCN3C(=O)C3CC3)CC2)c1` [Example 304, N-((2R,3S)-1-(cyclopropylcarbonyl)-2-(((cis-4-(3-methoxyphenyl)cyclohexyl)oxy)-methyl)piperidin-3-yl)methanesulfonamide], the EC50 in experiment [1] (FLIPR TETRA, Fluo-4AM) was 0.023 µM. The Emax in experiment [1] (setting [2]) was found to be 105%.

With `CS(=O)(=O)N[C@H]1CCCN(C(=O)OCC(F)(F)F)[C@H]1COC1CCN(c2ncccn2)CC1` [Example 305, 2,2,2-trifluoroethyl (2R,3S)-3-((methylsulfonyl)amino)-2-(((1-(pyrimidin-2-yl)piperidin-4-yl)oxy)methyl)piperidine-1-carboxylate], in experiment [1] (FLIPR TETRA, Fluo-4AM), the EC50 stood at 0.053 µM and the “Emax (%)” value is given as 106%. The compound `CS(=O)(=O)N[C@H]1CCCN(C(=O)CC(F)(F)F)[C@H]1CO[C@H]1CC[C@@H](c2ccccc2)CC1` [Example 306, N-((2R,3S)-2-(((cis-4-phenylcyclohexyl)oxy)methyl)-1-(3,3,3-trifluoropropanoyl)piperidin-3-yl)methanesulfonamide] yielded an EC50 in experiment [1] (FLIPR TETRA, Fluo-4AM) of 0.013 µM. Further, in experiment [1] (setting [2]), the Emax was 101%. As to `COC(=O)N1CCC[C@H](NS(=O)(=O)N(C)C)[C@@H]1CO[C@H]1CC[C@@H](c2ccccc2)CC1` [Example 309, methyl (2R,3S)-3-((dimethylsulfamoyl)amino)-2-(((cis-4-phenylcyclohexyl)oxy)methyl)-piperidine-1-carboxylate], the EC50 in experiment [1] (FLIPR TETRA, Fluo-4AM) was determined as 0.0031 µM. The maximal response (Emax) in experiment [1] (setting [2]) stood at 106%.

Consider `CN(C)S(=O)(=O)N[C@H]1CCCN(C(=O)C2CC2)[C@H]1CO[C@H]1CC[C@@H](c2ccccc2)CC1` [Example 310, N′-((2R,3S)-1-(cyclopropylcarbonyl)-2-(((cis-4-phenylcyclohexyl)oxy)methyl)-piperidin-3-yl)-N,N-dimethylsulfuric diamide], for which, in experiment [1] (FLIPR TETRA, Fluo-4AM), the EC50 is 0.0022 µM. Besides, the Emax in experiment [1] (setting [2]) was determined as 101%. In experiment [1] (FLIPR TETRA, Fluo-4AM), `CCc1ccccc1[C@H]1CC[C@@H](OC[C@H]2[C@@H](NS(C)(=O)=O)CCCN2C(C)=O)CC1` [Example 312, N-((2R,3S)-1-acetyl-2-(((cis-4-(2-ethylphenyl)cyclohexyl)oxy)methyl)-piperidin-3-yl)methanesulfonamide] gave an EC50 of 0.032 µM. Besides, the Emax in experiment [1] (setting [2]) is 98%.

With `Cc1ccccc1[C@H]1CC[C@@H](OC[C@@H]2NCCC[C@@H]2NS(C)(=O)=O)CC1` [Example 318, N-((2R,3S)-2-(((cis-4-(2-methylphenyl)cyclohexyl)oxy)-methyl)piperidin-3-yl)methanesulfonamide], the EC50 in experiment [1] (FLIPR TETRA, Fluo-4AM) was 1.1 µM. The Emax in experiment [1] (setting [2]) worked out at 99%.

Take `CC(=O)N1CCC[C@H](NS(C)(=O)=O)[C@@H]1CO[C@H]1CC[C@@H](c2ccccc2C)CC1` [Example 319, N-((2R,3S)-1-acetyl-2-(((cis-4-(2-methylphenyl)cyclohexyl)oxy)-methyl)piperidin-3-yl)methanesulfonamide]: the EC50 in experiment [1] (FLIPR TETRA, Fluo-4AM) turned out to be 0.029 µM. The Emax in experiment [1] (setting [2]) was 106%.

Consider `CS(=O)(=O)N[C@H]1CCCN[C@H]1CO[C@H]1CC[C@@H](c2ccccc2C(F)F)CC1` [Example 320, N-((2R,3S)-2-(((cis-4-(2-(difluoromethyl)phenyl)cyclohexyl)-oxy)methyl)piperidin-3-yl)methanesulfonamide], for which the EC50 in experiment [1] (FLIPR TETRA, Fluo-4AM) was found to be 2 µM. For the same compound, in experiment [1] (setting [2]), the Emax amounted to 74%. In experiment [1] (FLIPR TETRA, Fluo-4AM), `CC(=O)N1CCC[C@H](NS(C)(=O)=O)[C@@H]1CO[C@H]1CC[C@@H](c2ccccc2C(F)F)CC1` [Example 323, N-((2R,3S)-1-acetyl-2-(((cis-4-(2-(difluoromethyl)phenyl)cyclohexyl)-oxy)methyl)piperidin-3-yl)methanesulfonamide] returned an EC50 of 0.096 µM. The Emax in experiment [1] (setting [2]) amounted to 95%. For `COC(=O)N1CCC[C@H](NS(C)(=O)=O)[C@@H]1CO[C@H]1CC[C@@H](c2ccccc2C(F)F)CC1` [Example 324, methyl (2R,3S)-2-(((cis-4-(2-(difluoromethyl)phenyl)cyclohexyl)-oxy)methyl)-3-((methylsulfonyl)amino)piperidine-1-carboxylate], in experiment [1] (FLIPR TETRA, Fluo-4AM), the “Emax (%)” value amounted to 95%. As to `COC(=O)N1CCC[C@H](NS(C)(=O)=O)[C@@H]1CO[C@H]1CC[C@@](O)(c2ccccc2)CC1` [Example 331, methyl cis-2-(((trans-4-hydroxy-4-phenylcyclohexyl)oxy)methyl)-3-((methylsulfonyl)amino)piperidine-1-carboxylate], the maximal effect (Emax) in experiment [1] (setting [2]) is 98%. In turn, “N-(2-(((cis-4-(3-fluorophenyl)cyclohexyl)oxy)methyl)pyridin-3-yl)methanesulfonamide [Example 15]” had an EC50 in experiment [1] (agonist activity, 10 nM human orexin B = 100%) of 0.28 µM. This compound also displayed an Emax in experiment [1] (value at 30 uM concentration, orexin B as full agonist = 100%) of 105%.
